Data as given in EP0345906B1, “Unique elastase induced fibrinogen cleavage site antigens” (MERCK & CO. INC., priority 1988, dated 1989).
Where “and” joins values, the source holds several entries; their conditions need not be identical. Equal entries are not always repeated.

Assays:
whole human blood = experiment: In vitro production of Aα 17-21 epitope containing peptide in human blood, effect of ionophore concentration; assay type: cell-based; design: Aα 17-21 Epitope Containing (picomoles per ml blood): unit of the concentration uncertain; conditions: for Aα 17-21 Epitope Containing (picomoles per ml blood): 15 minutes at 37°C
Experimental: The radioimmunoassay was conducted in a total volume of 300 ml with all dilutions carried out in assay buffer, Example 6. Standard solutions were prepared at concentrations in the range of 1 x 10⁻¹⁰M to 2 x 1O⁻⁸M which represents amounts of peptide ranging from 0.01 picomoles to 2.0 picomoles in the 100 ml aliquot used in the assay. The assay included antibody-free controls to measure non-specific binding, and controls containing antibody and probe without added standard samples or unknown samples to determine the control level of peptide binding. To 100 ml of buffer, standard sample or unknown was added, 100 ml of specific antiserum from Examples 2 and 7, diluted 1:1,000 in assay buffer. This was followed by the addition of […] of radioactive probe, 125I-Tyrosyl-Aα 1-21 fibrinogen peptide, diluted in assay buffer to yield approximately 15,000 to 20,000 cpm per 100 ml aliquot. The assay was incubated overnight at 4°C and the non-antibody-bound radioactive probe was separated from antibody-bound probe by adsorption onto dextran-coated activated charcoal, see Example 7. Each assay included charcoal-free controls, to which 1 ml PBS was added for the determination of total counts. Radioactivity was determined using a gamma counter and standard techniques known in the art.
The antibody-free control and the zero-peptide antibody control were counted to determine the 0% bound and 100% bound values respectively. The assay standards are then counted and divided by the antibody control to determine the percent bound and a standard curve was generated. When the percent bound is plotted as a function of the logarithem of the amount of peptide in the standard, a sigmoidal curve is generated which is close to linear between the limits of 80% bound and 20% bound. Unknowns are counted, their percent of control calculated and they are compared to the standard curve to determine the amount of peptide present in the sample. Only those unknowns with values between 80% and 20% of control binding are considered valid.
Duplicate 1.0 ml aliquots of freshly-drawn heparinized vaccutainers containing 50 u per ml whole human blood were incubated for 15 minutes at 37°C in the presence of calcium ionophore A23187 at concentrations ranging up to 200 mM. The calcium ionophore was dissolved in dimethyl sulfoxide (DMSO) with the DMSO concentration in blood kept constant at 0.2%. Following incubation the aliquots were placed on ice, centrifuged and the plasma collected. Plasma aliquots (400 ml) were removed and placed in 12 x 75 mm glass tubes and 1200 ml chilled ethanol was added to precipitate the protein. The sample was centrifuged and 800 ml of the supernatant fluid was removed and evaporated to dryness in a Speed-vac concentrator. The sample was reconstituted to original plasma volume with 200 ml of distilled water. Duplicate […] aliquots were assayed for Aα 17-21 epitope containing peptide (Aα 1-21) as described in this Example. […]

[1] = system: Whole Blood of PiZZ and Normal Individuals; experiment: A23187-stimulated production of fibrinogen cleavage peptide in blood of PiZZ and normal individuals; assay type: cell-based, human; design: dose or concentration left out as unconfirmed; conditions: 37° for 25 minutes, one value per individual
Experimental: Heparinized venous blood was drawn from four individuals who process the PiZZ phenotype, deficient for alpha-1 proteinase inhibitor. Blood was also collected from two normal volunteers. Calcium ionophore A23187 was added to replicate aliquots of the freshly drawn blood to a final concentration of 150 mM. The blood was incubated at 37° for 25 minutes, the plasma collected and assayed cleavage peptide.
Values are expressed as pM Aα 17-21 epitope containing peptide produced per ml of plasma. The blood samples derived from the four individuals who were genetically deficient in alpha-1 proteinase inhibitor produced greater amounts of peptide than did those derived from the normal volunteers. Under basal conditions no fibrinogen cleavage products could be detected in the blood of any of the donors.

whole blood = experiment: In vitro production of Aα 17-21 epitope containing peptide in whole blood, ionophore incubation time; assay type: cell-based, human; design: dose or concentration left out as unconfirmed
Experimental: Calcium ionophore A23187 was added to replicate 1.0 ml aliquots of freshly-drawn heparinized whole blood as described above, to a final concentration of 150 mM. Additional control aliquots of blood received DMSO at a concentration of 0.2%. The blood aliquots were incubated at 37° for various time intervals ranging up to 60 minutes. Following the incubation, plasma was prepared, processed and assayed as above.

Guinea Pig (#3) = experiment: Antibody specificity radioimmunoassay, guinea pig antiserum; assay type: binding; conditions: probe ¹⁵I-tyrosyl-Aα 1-21
[2] = system: Rabbit antiserum prepared against the Aα 17-21 immunogen; experiment: Antibody specificity radioimmunoassay, rabbit antiserum; assay type: binding; conditions: antiserum 1:1,000; probe ¹⁵I-tyrosyl-Aα 1-21; amount in 100 ml aliquot
Experimental: Antibody specificity was determined by evaluating the ability of unlabelled peptides, specificity probes, of varying length, see Example 6, to inhibit the binding of the Aα 1-21radioactive probe. Rabbit antiserum prepared against the Aα 17-21 immunogen described in Example 2 was diluted in assay buffer, see Example 6, at a dilution of 1:1,000. The specificity peptides of Example 5 were diluted in assay buffer at concentrations ranging from 1.6 x 10⁻¹⁰ M to 1 x 10⁻⁵ M. One hundred ml of each dilution was added to 100 ml of antiserum and 100 ml of radioactive probe. This represents specificity probe peptide in concentrations ranging from 0.016 picomoles to 1.0 nanomoles in the 100 ml aliquot used in the assay. The radioactive probe […], see Example 5, was diluted in assay buffer to yield approximately 20,000 cpm per 100 ml aliquot, the amount used per sample or control. The assay was set up in a volume of 300 ml, with the volume made up where necessary with assay buffer. […]
The antibody-free control and the zero-peptide antibody control are counted to determine the 0% bound and the 100% bound values respectively. Radioactivity was determined using a gamma counter and standard techniques known in the art. The samples containing the test peptides are then counted and the amount of radioactivity associated with the antibody-free control subtracted from each. […]

Compound: CNc1ccc2oc(C[C@H]3O[C@@]4(CC[C@H]3C)O[C@H]([C@H](C)C(=O)c3ccc[nH]3)[C@H](C)C[C@H]4C)nc2c1C(=O)O [A23187]
- Aα 17-21 Epitope Containing (picomoles per ml blood) (whole human blood; Ionophore Concentration 5 (unit uncertain)): 1.2 picomoles per ml blood
- Aα 17-21 Epitope Containing (picomoles per ml blood) (whole human blood; Ionophore Concentration 15 (unit uncertain)): 1.6 picomoles per ml blood
- Aα 17-21 Epitope Containing (picomoles per ml blood) (whole human blood; Ionophore Concentration 25 (unit uncertain)): 2.6 picomoles per ml blood
- Aα 17-21 Epitope Containing (picomoles per ml blood) (whole human blood; Ionophore Concentration 50 (unit uncertain)): 2.8 picomoles per ml blood
- Aα 17-21 Epitope Containing (picomoles per ml blood) (whole human blood; Ionophore Concentration 100 (unit uncertain)): 4.0 picomoles per ml blood
- Aα 17-21 Epitope Containing (picomoles per ml blood) (whole human blood; Ionophore Concentration 150 (unit uncertain)): 4.1 picomoles per ml blood
- Aα 17-21 Epitope Containing (picomoles per ml blood) (whole human blood; Ionophore Concentration 200 (unit uncertain)): 3.8 picomoles per ml blood
- concentration giving optimal production of Aα 17-21 epitope-containing peptide (whole human blood; whole human blood): 150 mM
- Aα 17-21 epitope containing peptide produced per ml of plasma, A23187 ([1]; Normal individuals): 4.2 pM per ml of plasma and 4.6 pM per ml of plasma
- Aα 17-21 epitope containing peptide produced per ml of plasma, A23187 ([1]; PiZZ individuals): 8.4 pM per ml of plasma and 26.5 pM per ml of plasma and 20.5 pM per ml of plasma and 17.8 pM per ml of plasma
- Aα 17-21 Epitope (picomoles/ml plasma) (whole blood; Incubation Time 2.5 minutes): 2.3 picomoles/ml plasma
- Aα 17-21 Epitope (picomoles/ml plasma) (whole blood; Incubation Time 7.5 minutes): 2.8 picomoles/ml plasma
- Aα 17-21 Epitope (picomoles/ml plasma) (whole blood; Incubation Time 10.0 minutes): 3.5 picomoles/ml plasma
- Aα 17-21 Epitope (picomoles/ml plasma) (whole blood; Incubation Time 15.0 minutes): 3.7 picomoles/ml plasma
- Aα 17-21 Epitope (picomoles/ml plasma) (whole blood; Incubation Time 20.0 minutes): 3.7 picomoles/ml plasma
- Aα 17-21 Epitope (picomoles/ml plasma) (whole blood; Incubation Time 25.0 minutes): 3.8 picomoles/ml plasma
- Aα 17-21 Epitope (picomoles/ml plasma) (whole blood; Incubation Time 30.0 minutes): 3.8 picomoles/ml plasma
- Aα 17-21 Epitope (picomoles/ml plasma) (whole blood; Incubation Time 40.0 minutes): 3.6 picomoles/ml plasma
- Aα 17-21 Epitope (picomoles/ml plasma) (whole blood; Incubation Time 50.0 minutes): 3.1 picomoles/ml plasma
- Aα 17-21 Epitope (picomoles/ml plasma) (whole blood; Incubation Time 60.0 minutes): 3.2 picomoles/ml plasma
- Aα 17-21 Epitope (picomoles/ml plasma) (whole blood; Incubation Time <1.0 minutes): 0.7 picomoles/ml plasma

Compound: Gly-Pro-Arg-Val-Val (GPRVV; printed: Gly-Pro-Arg-Val-Val) [Aα 17-21]
- Inhibitory Concentration (IC₅₀) picomoles Guinea Pig (#3) (Guinea Pig (#3)): 10 picomoles
- Inhibitory Concentration (IC₅₀) picomoles Rabbit (#20) [2]: 1.6 picomoles
